According to patent US20120269725A1, “TARGETED RADIOLABELED COMPOUNDS AND THEIR USE FOR THE TREATMENT AND DIAGNOSIS OF CANCER” (priority 2009, published 2012):

Experiments:
[1] = system: U-87 human glioblastoma cells; experiment: Cell survival of U-87 human glioblastoma cells after treatment; assay type: cell-based; conditions: 24 h exposure, concentration-dependent survival (FIG. 24)
Procedure: U-87 MG cell line is an epithelial cell line derived from a grade IV glioblastoma resected from the brain of a patient. U-87 cells were plated in four flasks for each isomer and allowed to attach for 24 h. The compounds 6b fast and 6b slow were added to U-87 cells at […] (37 kBq/mL). Cells were incubated with the radioactive compounds for 24 h and the radioactive medium was removed. Cells were washed twice with fresh, nonradioactive medium and trypsinized. After appropriate dilutions in full growth medium, cells were re-plated in fresh medium (n=4 per compound). After 96 hours in culture, cells were harvested and their numbers counted using a Cellometer® disposable cell counting chamber (Nexcelom Bioscience, Lawrence, Mass.). Four flasks used as controls were sham-treated with a volume of PBS used to dissolve radioactive compounds. The control flasks were processed as described for the radioactive compound-treated cells. […] The surviving fraction is calculated as the ratio of cell number recovered from flasks treated with radioactive compounds to the cell number recovered from the control flasks. Averages and standard deviations are shown. The cell survival was also measured in a 96-well and 6-well formats.
U-87 cells were plated in 6-well plates from suspension. The compounds 6b fast and 6b slow were added with media on day 0. […] The OD was read at 560 nm. […]

[2] = system: U-87 human glioblastoma cells; experiment: DNA uptake and subcellular distribution of radioactivity in U-87 cells; assay type: cell-based
Procedure: U-87 cells were plated in T75 flasks and allowed to attach for 24 h. Compounds 6b-fast and 6b slow were added to cells at 1 μCi/mL (37 kBq/mL) and 5 μCi/mL (185 kBq/mL). Cells were incubated with radioactive compounds from 24 h to 120 h. The radioactive medium was removed. Cells were washed twice with fresh, nonradioactive medium. Cells were trypsinized and their numbers and radioactive content determined. A similar study was also conducted in 96- and 24-well formats, which allowed more rapid analyses of several concentrations of 6b. Harvested cells were processed using NE-PER nuclear and cytoplasmic extraction reagents (Thermo Fisher Scientific, Rockford, Ill.). […] U-87 cells plated in T75 flasks and allowed to grow for 24 h. Cells were treated with […] 6b fast and 6b slow for 40 h at which time the radioactive medium was removed and replaced with fresh media. Cells were grown in fresh medium for additional 24 h and 72 h. Cells were trypsinized and DNA was extracted using the Qiagen method (Qiagen Genomic-tip 20/G; Qiagen, Valencia, Calif.).

[3] = system: U-87 human glioblastoma cells; experiment: Concentration-dependent uptake by U-87 cells; assay type: cell-based; conditions: 40 h exposure, 96-well plates
Procedure: U-87 cells were plated in 96-well plates and allowed to attach for ˜48 hours. The used medium was replaced with 6b-containing medium and the cells were grown in the presence of radioactivity for 40 h. The radioactive media was removed after 40 h of exposure. Aliquots (0.05 mL) of the radioactive medium were counted in a gamma counter. Cell monolayers were washed with PBS, PBS-methanol (2 min), and fixed in methanol (10 min). Fixed cells were allowed to dry and were stained with 0.25% crystal violet (10 min). To each well 0.1 mL ethanol was added (2 h) followed by 0.1 mL 3.5 mM SDS in water. OD at 560 nm was read. Solubilized cells were transferred into gamma counter tubes to determine their radioactive content. The plate was divided into individual wells and these were also added to the gamma counter tubes. FIG. 27 illustrates the concentration-dependent uptake.

[4] = system: subcutaneous LS174T tumors (human colorectal adenocarcinoma); experiment: Biodistribution, clearance and planar imaging in athymic mice bearing subcutaneous LS174T xenografts; assay type: in vivo, athymic NCr-nu/nu mice; conditions: IV administration
Procedure: The in vivo properties and pharmacology of several compounds of the present invention were initially tested in athymic mice bearing subcutaneous LS174T tumors (human colorectal adenocarcinoma), which have several desirable properties such as rapid growth when implanted subcutaneously (SQ), good vascularization and the availability of considerable historical data for the parent compound IUdR. The clearance rates from blood, tumor, and associated organs were analyzed to determine the structure-pharmacokinetics relationship. The first compounds studied were 6b-fast and 6b-slow. Four-to-six-weeks old female athymic NCr-nu/nu mice (NCI-Frederic, Md., USA) were allowed to acclimate in Applicants' facility after delivery for no less than 5 days. All protocols involving animals were approved by the University of Nebraska Institutional Animal Care and Use Committee. Mice were housed in microisolator cages with free access to sterilized standard rodent diet and water. LS174T cells in 0.1 mL of serum-free medium were implanted SQ at 5×10^6 cells/mouse. One week later identification transponders were implanted, also SQ. Body weights and tumor sizes were monitored twice weekly, and approximately 10 days after the cell implant, mice were randomized for biodistribution studies.
Each of the two isomers, 6b-fast and 6b-slow, was tested independently in separate groups of mice. The comparison to the parent compound, IUdR, was made by co-injecting ^131IUdR with a particular ^125I-labeled diastereomer. Compounds were administered intravenously (IV) via a tail vein.
Biodistribution was conducted at 1 h, 4 h, 24 and 48 h after the administration of radiolabeled compounds (n=6 per time point). The injection doses contained approximately 1 μCi (37 kBq) ^131IUdR and 5 μCi (185 kBq) ^125I-labeled 6b-fast or 6b-slow dissolved in 0.2 mL phosphate buffered saline containing 0.1% bovine serum albumin, pH 7.2 (PBS). All syringes were weighted after loading with the compound solution and immediately after the injection to determine the weight of the injected dose. Triplicate standards of the injected dose were prepared in PBS and counted in a gamma counter just before the beginning of the experiment. The radioactive content of these standards was also determined alongside all tissues after the necropsy to correct the tissue uptake for the decay of the radioisotope. Blood, liver, spleen, heart, lungs, kidneys, brain, tumor and tail were collected during necropsy. Tissues were rinsed in ice-cold saline, patted dry and weighed. The tail was collected to validate the quality of the IV injections.
FIG. 7 presents whole body images for a typical time course distribution (24 h, 48 h, and 72 h) of 6b administered as a diastereomeric mixture in LS174T-bearing athymic mice. The images were acquired 1, 2, and 3 days after the administration of the compound. […] It is also apparent that based on pharmacokinetics, the use of these compounds can be tailored to a specific malignancy and its anatomical location.

[5] = system: advanced OVCAR-3 tumors; experiment: Therapy with fractionated doses in advanced OVCAR-3 tumors; assay type: in vivo, athymic NCr-nu/nu mice; conditions: IP fractionated doses
Procedure: Female athymic NCr-nu/nu mice were received from NCI-Frederic (MD, USA). Identification transponders were implanted SQ in mice acclimated for one week. When mice reached the age of 8-weeks, all mice received IP implant of 5.6×10^8 OVCAR-3 cells/mouse in 0.5 mL media without serum. This cancer cell load is double the size of implant described in Example 6 and allows for a rapid development of the advanced stages of the tumor. One weeks later mice were separated into […] via a lottery as follows: mice in the control group were left untreated; mice the vehicle group received 0.3 mL vehicle (PBS containing 0.5% albumin and 5% DMSO); the remaining mice in groups ×1, ×2, and ×3 received an IP injection of 8b-slow in 0.3 mL vehicle; two weeks later mice in groups ×2 and ×3 received an IP injection of 8b-slow in 0.3 mL vehicle; and four weeks after the first dose mice in group ×3 received an IP injection of 8b-slow in 0.3 mL vehicle. Using the same schedule, mice in the vehicle group were given IP injections of 0.3 mL vehicle. The average total administered doses were as follows: group ×1: 0.5 mCi […]; group ×2: 1 mCi (37 MBq), and group ×3: 1.5 mCi (55.5 MBq). All mice were killed six weeks after the administration of the first dose. […] The data analyses confirmed that the observed differences are statistically significant. […]

[6] = system: early stage OVCAR-3 tumors; experiment: Dose-response therapy in early stage OVCAR-3 tumors; assay type: in vivo, athymic NCr-nu/nu mice
Procedure: Female athymic NCr-nu/nu mice were received from NCI-Frederick (MD, USA) and were allowed to acclimate in Applicants' facilities until the age of 8 weeks. After this period of acclimation, 2.5×10^8 OVCAR-3 cells were implanted into 36 mice. Four days later, each mouse received SQ transponders (micro-identification chips) and mice were divided into three groups at random: control mice receiving sham IP injections of 0.6 mL vehicle (n=12); mice in the high dose group were treated with one IP dose of 0.7 mCi (26 MBq) 8b slow in 0.6 mL vehicle (n=12); and mice the low dose group were treated with one IP dose of 0.29 mCi (10.7 MBq) 8b slow in 0.6 mL vehicle (n=12).
Five weeks after treatment, all mice were sacrificed and full necropsy was performed. A single dose of 8b slow given at the early stages of the disease reduces the tumor burden by […]. The response of solid tumors seems better than the cells in ascites, […] in the weight of the solid tumor deposits (FIG. 17). The uptake and retention of radioactivity was measured in several tissues and in tumor. The radioactivity levels in blood are ˜30 times lower than in the tumor cells in ascites and ˜10 times lower than in the solid tumors.

[7] = five weeks after single IP dose
[8] = single IP dose, five weeks after treatment

O=c1[nH]c(=O)n([C@H]2C[C@H](O)[C@@H](COP3(=O)OCc4ccccc4O3)O2)cc1[125I] (stereo partly drawn) [6b slow, 5-[^125I]-Iodo-5′-O-cycloSaligenyl-2′-deoxyuridine Monophosphate]
cytotoxicity to U-87 cells, slow versus fast isomer [1]: more cytotoxic to U-87 cells compared to the 6b fast isomer | cellular and nuclear uptake, slow versus fast isomer [2]: greater overall cellular and nuclear uptake when compared to 6b fast | uptake by U-87 cells compared to 6b fast [3]: almost a two-fold greater uptake

CC(C)(C)c1cc(C(C)(C)C)c2c(c1F)COP(=O)(OC[C@H]1O[C@@H](n3cc([125I])c(=O)[nH]c3=O)C[C@@H]1O)O2 (stereo partly drawn) [8b slow, 5-[^125I]-Iodo-5′-O-[cyclo-3,5-di-(tert-butyl)-6-fluoroSaligenyl]-2′-deoxyuridine Monophosphate]
clearance from blood and normal tissues [4]: rapid clearance from blood and normal tissues | relationship between tumor size and total administered doses ([5]; total 0.5, 1, 1.5 mCi, six weeks after first dose): unambiguous dose-response relationship | hematological adverse effects (hemoglobin and hematocrit) ([5]; total 0.5-1.5 mCi): do not produce any significant hematological adverse effects | liver uptake [6, 7]: < 0.003 % ID/g | radioactivity level in blood, times lower than in the solid tumors [6, 7]: ~10 times | radioactivity level in blood, times lower than in the tumor cells in ascites [6, 7]: ~30 times | adverse effects by hemoglobin and hematocrit levels ([6]; single IP dose 0.29 or 0.7 mCi): not causing noticeable adverse effects | reduction in the weight of the solid tumor deposits [6, 8]: > 300% | reduction of tumor burden [6, 8]: > 230%
